Experimental data: BindingDB's records for doi:10.1021/acs.jmedchem.8b00629 (Ludwig-Maximilians-University Munich, 2018)
pIC50: −log10 of the molar value.

Key:
[1] = Inhibition of mouse GAT3 expressed in HEK293 cells assessed as reduction in [3H]GABA uptake preincubated for 25 mins followed by [3H]GABA addition measured after 4 mins by liquid scintillation counting analysis
[2] = Inhibition of mouse GAT2 expressed in HEK293 cells assessed as reduction in [3H]GABA uptake preincubated for 25 mins followed by [3H]GABA addition measured after 4 mins by liquid scintillation counting analysis

Row | pIC50 [1] | pIC50 [2] | Compound
1 | < 4.00 | < 4.00 | O=C(O)[C@@H]1CCCN(CCC#Cc2cccc(/N=N/c3cccc4ccccc34)c2)C1
2 | < 4.00 | < 4.00 | O=C(O)[C@@H]1CCCN(CCC#Cc2ccc(/N=N/c3cccc4ccccc34)cc2)C1
3 | < 4.00 | < 4.00 | O=C(O)[C@@H]1CCCN(CCC#Cc2cccc(/N=N/c3ccccc3)c2)C1
4 | < 4.00 | < 4.00 | O=C(O)[C@@H]1CCCN(CCC#Cc2ccc(/N=N/c3ccccc3)cc2)C1
